The values that follow come from patent US20020142334A1, “Methods of detecting poly(ADP-ribose) polymerase enzymatic activity” (priority 2001, published 2002).

The target of assay [1] is T1, PARP (Homo sapiens, UniProt P09874).
T1 construct: purchased R&D Systems, Inc. TA5334
Description: commercially available [32P] NAD-based PARP assay (R&D Systems). The format is biochemical. The settings on record: [32P]-NAD based kit. How it is done:
The present method was conducted in the presence of known PARP inhibitors of varying potencies, tested at a range of concentrations. The experiment was conducted to determine if the IC50 values generated by the assay of the present invention were in agreement with previously reported IC50 values for these compounds and IC50 values generated by a commercially available [^32P] NAD-based PARP assay (R&D Systems, Inc., Minneapolis, Minn., Cat#TA5334). [^32P]-NAD was obtained from Amersham Pharmacia Biotech, Piscataway, N.J.

The target of a further assay is T2, human PARP-1 (Homo sapiens, UniProt P09874).
T2 construct: purchased Trevigen 4667-250-01
T2 sequence (P09874 whole entry): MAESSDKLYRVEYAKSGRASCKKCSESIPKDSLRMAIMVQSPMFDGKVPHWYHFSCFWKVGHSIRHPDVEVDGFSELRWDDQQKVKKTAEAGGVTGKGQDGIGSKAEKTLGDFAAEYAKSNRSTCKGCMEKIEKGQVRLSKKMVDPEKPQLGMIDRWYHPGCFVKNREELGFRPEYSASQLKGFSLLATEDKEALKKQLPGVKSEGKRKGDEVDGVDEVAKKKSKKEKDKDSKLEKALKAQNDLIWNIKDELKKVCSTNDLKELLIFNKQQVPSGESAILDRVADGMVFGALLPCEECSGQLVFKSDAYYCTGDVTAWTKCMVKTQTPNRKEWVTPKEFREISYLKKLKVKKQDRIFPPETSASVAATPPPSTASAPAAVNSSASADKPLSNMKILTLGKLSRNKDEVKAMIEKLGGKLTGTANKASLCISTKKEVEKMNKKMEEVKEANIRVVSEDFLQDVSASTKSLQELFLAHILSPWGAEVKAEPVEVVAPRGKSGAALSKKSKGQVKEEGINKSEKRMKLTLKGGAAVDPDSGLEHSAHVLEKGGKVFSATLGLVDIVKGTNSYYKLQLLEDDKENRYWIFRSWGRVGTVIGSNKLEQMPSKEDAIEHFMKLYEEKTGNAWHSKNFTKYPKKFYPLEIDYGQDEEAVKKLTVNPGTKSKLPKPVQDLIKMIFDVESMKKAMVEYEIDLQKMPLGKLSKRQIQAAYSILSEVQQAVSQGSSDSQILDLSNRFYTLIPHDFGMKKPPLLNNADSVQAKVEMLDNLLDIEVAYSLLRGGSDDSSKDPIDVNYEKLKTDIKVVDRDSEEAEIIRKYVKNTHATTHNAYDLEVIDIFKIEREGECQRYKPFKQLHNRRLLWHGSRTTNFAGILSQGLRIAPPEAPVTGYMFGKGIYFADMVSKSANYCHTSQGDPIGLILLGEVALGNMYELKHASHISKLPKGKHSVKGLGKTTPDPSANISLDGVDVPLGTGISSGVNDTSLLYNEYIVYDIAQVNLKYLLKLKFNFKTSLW
In words: Biotin-Avidin PARP assay (biotinylated NAD auto-ribosylation, immobilized PARP). The format is biochemical. On the procedure:
ELISA plates (96-well) were coated with recombinant human PARP-1 overnight at 4° C.
Prior to the activity assay, the plates were washed three times in PBS-T.
The control reactions were carried out in the absence of sheared DNA in order to determine background activity for the reaction(s). […] The optical density for each sample was measured at 410 nm.
The inhibitors were first dissolved in DMSO and then serially diluted in DMSO to create stock solutions which were added to the auto-ribosylation buffer to achieve the desired range of final concentrations of the inhibitors in the nanomolar to millimolar range.

Assay [2] concerns the target T1, PARP. Particulars: reported values, see footnote; read-out: IC50 cited in the Literature; cited from earlier work.

pIC50: −log10 of the molar value. Read-outs that look alike come from different tables or passages of the source.

T1 sequence (P09874 whole entry): as above

Usually pIC50 stands for the IC50 on a negative log10 scale, so that one unit is a factor of ten. With `Cc1nc2c(O)cccc2c(=O)[nH]1` [Compound A, 8-hydroxy-2-methyl-quinazolin-4-[3H]-one], the negative-log IC50 (pIC50) on PARP [1] was 6.50; against human PARP-1, 6.34; on PARP [2] it was 6.40.
In the case of `NC(=O)c1cccc2cccc(C(=O)O)c12` [Compound B, 8-carboximido-napthalene-1-carboxylic acid], the pIC50 at PARP [1] was 6.48; on human PARP-1 (PARP-1 coated on plates overnight at 4° C., 25 μM biotinylated NAD, 100 μM unlabelled NAD, sheared DNA, read-out: Biotin Avidin PARP (IC50)), 6.48; on PARP [2], 6.60.
